{"source": "patent US12721823B2", "about": "“Methods and compositions for treatment of low circulating testosterone conditions” (University of Florida Research Foundation, Inc., priority 2021, dated 2026)", "format_in_all_cases": "in vivo, rat", "key": {"[1]": {"system": "Sprague-Dawley F0 male rats", "assay": "Long-term serum testosterone after SEVO with or without surgery and TBI", "conditions": "young adult F0 male rats exposed to SEVO; FIG. 11A", "protocol": "The Sprague-Dawley F0 male rats in the TBI group had SEVO exposure for 40 min to conduct a craniectomy and injury hub implantation on P60. After 60 min of recovery, they were reanesthetized with SEVO for 3 min to induce moderate TBI using a midline fluid percussion injury (FPI) model. The TBI+SEVO group had additional exposure to SEVO for 3 h on P62, P64, and P66. These subsequent exposures to SEVO, which may be needed to treat accompanying conditions, such as orthopedic, abdominal, or thoracic injuries, were used to study whether the effects of SEVO, surgery, and TBI interact to induce their effects. The Sham group had all exposures to SEVO and craniectomy but not TBI. The SEVO-SEVO group had all exposures to SEVO only. The control group had none of these procedures, except being placed in a new cage for an equivalent duration and number of times. A subset of F0 male rats was sacrificed on P66 1 h after the last exposure to SEVO for 3 h or at equivalent timepoints to collect blood to study acute neuroendocrine effects (FIG. 11A). The serum corticosterone levels before and after physical restraint for 30 min were measured ion P140. Ten days after completing the in vivo studies, the same rats were sacrificed and trunk blood samples were collected to measure serum levels of testosterone."}, "Sprague-Dawley rats [2]": {"system": "Sprague-Dawley rats", "assay": "Basal and stress-induced (restraint) serum corticosterone, HPA axis activity", "conditions": "for serum levels of corticosterone before and after physical restraint: all experimental groups", "description": "Sixty-four G1 rats (32 control and 32 sevoflurane exposed) and 122 G2 rats, which were not exposed to sevoflurane anesthesia and were subjected to animal facility rearing only, were studied. The G1 rats were sequentially evaluated in the EPM starting on ~[…], PPI of the acoustic startle response on ~[…] and MWM starting ~on […] (FIG. 1). One half of these animals were sacrificed on ≥[…] to collect trunk blood, brain and testis and ovarian tissues for further analyses. The rest of these animals were physically restrained for 30 min on ≥[…] to measure corticosterone responses, followed by collection of tissue samples (as above) for further analyses. The G2 rats were evaluated in the EPM starting on P60 and PPI of startle on P70 (FIG. 1). One half of these animals were sacrificed on ≥[…] to collect trunk blood and brain tissue samples for further analyses, and the rest of these animals were tested for the corticosterone responses to physical restraint for 30 min on ≥[…] before collecting the trunk blood and brain tissue samples. Blood samples (~300 μl) were collected using the “tail clip” method at rest and 10, 60, and 120 min after the restraint. Physical restraint was administered using rodent holders (Kent scientific Corporation, Torrington, CT). Serum corticosterone was measured using commercial ELISA kits (Cayman Chemical Company, Ann Arbor, MI, USA) according to the manufacturer's instructions."}, "Sprague-Dawley rats [3]": {"system": "Sprague-Dawley rats", "assay": "Acute serum corticosterone 1 h after last sevoflurane exposure (ELISA)", "conditions": "sevoflurane 3 h on P56, P58, P60, 1 h after last exposure, vs control", "protocol": "Male and female rats in Generation 1 (G1) underwent anesthesia on postnatal days 56, 58 and 60. During this period, rats were held in a temperature-controlled chamber (+37° C.) with a continuous supply of 30% oxygen in air (1.5 L/min) during anesthesia-6% sevoflurane for 3 min for anesthesia induction and 2.1% sevoflurane for 177 min for anesthesia maintenance (the Sevoflurane group). Gas monitoring was performed using a calibrated Datex side stream analyzer (Datex-Ohmeda, Helsinki, Finland), which samples from the animal chamber interior. Rats in the G1 control group (Control) were not subjected to anesthesia. A subset of the rats in the G1 Control and Sevoflurane groups was sacrificed 1 h after the last exposure to sevoflurane (or equivalent timepoint in the Control group) to collect blood and brain tissue samples. FIG. 1 provides a schematic of experimental design. The remaining Control and Sevoflurane G1 male and female rats were mated on P85 to produce offspring (generation 2, G2). […] Serum corticosterone was measured using commercial ELISA kits (Cayman Chemical Company, Ann Arbor, MI, USA) according to the manufacturer's instructions. […] (FIGS. 2C-2F) Representative confocal images and quantitative analysis of the KCC2 immunoreactivity in the paraventricular nucleus (PVN) of the hypothalamus of the control and sevoflurane-exposed male (FIGS. 2C, 2E) and female (FIGS. 2D, 2F) rats. […]"}}}
{"smiles": "FCOC(C(F)(F)F)C(F)(F)F", "note": "[sevoflurane, 1,1,1,3,3,3-hexafluoro-2-(fluoromethoxy)propane]", "values": [{"measurement": "serum levels of testosterone", "setting": "[1]", "value": "long-term increase"}, {"measurement": "serum corticosterone levels", "setting": "Sprague-Dawley rats [2]; G1 female rats, before and after restraint, vs control", "value": "no difference"}, {"measurement": "serum corticosterone", "setting": "Sprague-Dawley rats [2]; G1 male rats, 10 min after restraint, vs control", "value": "higher levels"}, {"measurement": "total corticosterone responses (AUCg)", "setting": "Sprague-Dawley rats [2]; G1 male rats, 30 min restraint on ≥P160, vs control", "value": "significantly higher"}, {"measurement": "serum corticosterone", "setting": "Sprague-Dawley rats [2]; G1 male rats, 60 min after restraint, vs control", "value": "higher levels"}, {"measurement": "serum corticosterone", "setting": "Sprague-Dawley rats [2]; G1 male rats, 120 min post restraint, vs control", "value": "not different"}, {"measurement": "serum corticosterone", "setting": "Sprague-Dawley rats [2]; G1 male rats, before the restraint, vs control", "value": "not different"}, {"measurement": "serum levels of corticosterone before and after physical restraint", "setting": "Sprague-Dawley rats [2]; G2 female rats", "value": "no differences"}, {"measurement": "serum levels of corticosterone before and after physical restraint", "setting": "Sprague-Dawley rats [2]; G2 male rats", "value": "no differences"}, {"measurement": "serum levels of corticosterone", "setting": "Sprague-Dawley rats [3]; G1 female rats", "value": "significantly increased"}, {"measurement": "serum levels of corticosterone", "setting": "Sprague-Dawley rats [3]; G1 male rats", "value": "significantly increased"}]}
